Test results taken from US11725036B2, “Modified lipidated relaxin B chain peptides and their therapeutic use” (Sanofi, priority 2018, dated 2023).
Converted amounts (≈) assume the structure as drawn. Like-named read-outs stand apart in the source and are kept apart here. Starred links: 1 amine or outer side, 2 acyl side, 3 side chain; linkers in the order of their positions; H or OH if unused. Non-standard residues stand in square brackets, D forms with d. Residues, ends and D or L forms follow the SMILES beside them. Groups on a side chain read outwards from the residue. *: point of attachment. X7 = CCCCCCCCCCCCCCCC(=O)N[C@@H](CCC(=O)N[C@@H](CCC(=O)N[C@@H](CCC(=O)NCCCOCCOCCOCCCNC(=O)COCC(=O)NCCCOCCOCCOCCCNC(=O)COCC(=O)NCCCOCCOCCOCCCNC(=O)COCC(=O)*)C(=O)O)C(=O)O)C(=O)O; X1 = CCCCCCCCCCCCCCCC(=O)N[C@@H](CCC(=O)N[C@@H](CCC(=O)N[C@@H](CCC(=O)NCCCOCCOCCOCCCNC(=O)CCC(=O)NCCCOCCOCCOCCCNC(=O)CCC(=O)NCCCOCCOCCOCCCN*)C(=O)O)C(=O)O)C(=O)O; X2 = CCCCCCCCCCCCCCCC(=O)N[C@@H](CCC(=O)N[C@@H](CCC(=O)N[C@@H](CCC(=O)NCCCOCCOCCOCCCNC(=O)CCC(=O)NCCCOCCOCCOCCCN*)C(=O)O)C(=O)O)C(=O)O; Trp(5-Cl) = N[C@@H](Cc1c[nH]c2ccc(Cl)cc12)C(=O)O; Suc = O=C(CCC(=O)[*:2])[*:1]; αMeK = C[C@](N)(CCCCN)C(=O)O; Aib = CC(C)(N)C(=O)O

Key:
RXFP1 = molecular target: T1, RXFP1 (Homo sapiens, UniProt Q9HBX9); assay: OVCAR5 cAMP assay (HTRF); assay type: cell-based; conditions: for EC50: OVCAR 5 cells expressing endogenous RXFP1, cAMP readout; for Emax: OVCAR 5 cells, maximal cAMP relative to H2-relaxin
T1 construct: OVCAR5 cells expressing endogenous RXFP1; endogenous in cells; host or cells: OVCAR5
T1 sequence (Q9HBX9 1-757): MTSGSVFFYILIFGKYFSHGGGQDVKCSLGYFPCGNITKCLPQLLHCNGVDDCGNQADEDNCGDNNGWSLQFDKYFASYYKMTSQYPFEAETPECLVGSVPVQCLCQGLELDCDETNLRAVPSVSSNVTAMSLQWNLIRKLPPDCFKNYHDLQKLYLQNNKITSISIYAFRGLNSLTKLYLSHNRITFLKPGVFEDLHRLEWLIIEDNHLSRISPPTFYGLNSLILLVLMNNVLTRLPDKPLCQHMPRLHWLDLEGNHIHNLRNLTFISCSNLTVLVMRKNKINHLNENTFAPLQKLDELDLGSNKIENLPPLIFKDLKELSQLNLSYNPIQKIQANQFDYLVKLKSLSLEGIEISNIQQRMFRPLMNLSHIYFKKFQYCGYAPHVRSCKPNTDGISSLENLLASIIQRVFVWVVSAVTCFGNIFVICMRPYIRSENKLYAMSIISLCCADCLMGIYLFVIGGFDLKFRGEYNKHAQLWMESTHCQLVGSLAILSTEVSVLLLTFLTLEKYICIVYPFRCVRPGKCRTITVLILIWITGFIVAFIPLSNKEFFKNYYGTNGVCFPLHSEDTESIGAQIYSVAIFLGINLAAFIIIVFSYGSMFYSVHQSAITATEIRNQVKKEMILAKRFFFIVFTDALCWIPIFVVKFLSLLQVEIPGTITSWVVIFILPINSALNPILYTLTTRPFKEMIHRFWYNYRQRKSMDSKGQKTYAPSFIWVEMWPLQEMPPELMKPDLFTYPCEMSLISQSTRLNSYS
Outline: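 Endogenous RXFP1 in OVCAR5 cells, pretreated 40 min at 37° C with 1 mM IBMX, then exposed to increasing peptide concentrations in serum-free medium for 30 min at 37° C. cAMP read by HTRF; EC50 by variable-slope sigmoidal fit, Emax as % of H2-relaxin maximal cAMP in same run.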

[1] = Solubility testing in buffer; assay type: physicochemical; conditions: target solubility 10.0 mg/ml
Procedure: Prior to the testing of solubility of a peptide batch, its purity (HPLC-UV) was determined.
Acetate Buffer 50 mM pH4.5: 0.75 g C2H3C02Na,3H2O (Sigma S7545)+0.35 ml CH3CO2H 100% solution dissolved in Millipore water, adjusted to pH with diluted (1:1) CH3CO2H and diluted to 250 ml with Millipore water.
In a 4 ml Ependorph vial, an accurately weighed sample of compound was diluted in study media to obtain target concentration of 2, 6 or 10 mg/ml of pure compound. The sample vials were shacked (rock 'roll shaker) for ˜19 h. 300 μL aliquots were filtered through a Millipore “Solvinert” plate (0.45 μm-PTFE hydrophilic).
pH was measured with a micro electrode
Waters Acquity UPLC System with DAD detector
Column: Waters Peptide Column CSH C18 (130 Å; 1.7 μm; 50*2.1 mm)
Column temperature: 60° C.
Full loop (about 5 μL)—overfill factor 5
Weak et Strong wash: H2O/ACN (75/25; V/V); Seal wash: H2O/IsOH (95/5; V/V). Mobile phase:
Solvent A: 0.05% TFA in H2O; Solvent B: 0.035% TFA in CH3CN
Gradient: from 0 to 12 min B=2% to 60%, from 12 to 14 min B=60% to 100%. Column washing 100% B 1 min, column equilibration 2% B 2.5 min.
UV detector: wavelength: 220 nm.

[2] = acetate buffer 50 mM pH 4.5, read-out: Solubility Acetate buffer pH 4.5
[3] = phosphate buffer 50 mM pH 7.4, read-out: Solubility phosphate buffer pH 7.4

Row | Structure (SMILES) | EC50 (RXFP1) | Emax (RXFP1) | solubility [1, 2] | solubility [1, 3]
1 | CCCCCCCCCCCCCCCC(=O)N[C@@H](CCC(=O)N[C@@H](CCC(=O)N[C@@H](CCC(=O)NCCCOCCOCCOCCCNC(=O)CCC(=O)NCCCOCCOCCOCCCNC(=O)CCC(=O)NCCCC[C@H](NC(=O)CNC(=O)[C@H](CCC(=O)O)NC(=O)C(C)(C)NC(=O)C(C)(C)NC(=O)[C@@H](NC(=O)[C@H](CCCCNC(C)=O)NC(=O)[C@H](C)NC(=O)[C@H](CCCNC(=N)N)NC(=O)[C@@H](NC(=O)[C@H](CCCCN)NC(=O)[C@H](CCC(=O)O)NC(=O)[C@H](CCCNC(=N)N)NC(=O)CNC(=O)[C@H](CCC(=O)O)NC(=O)[C@H](CC(C)C)NC(C)=O)C(C)C)[C@@H](C)CC)C(=O)N[C@@H](CO)C(=O)N[C@H](C(=O)N[C@@H](Cc1ccccc1)C(=O)N[C@@H](CO)C(=O)N[C@H](CCCCN)C(=O)N[C@@H](CCCNC(=N)N)C(=O)N[C@@H](C)C(=O)N[C@@H](CCCCNC(C)=O)C(N)=O)[C@@H](C)O)C(=O)O)C(=O)O)C(=O)O [compound 16] (Ac-LEGREKVRAK(Ac)I[Aib][Aib]EGK([Suc-X2])STFS[dK]RAK(Ac)-NH2) | 6.8 nM | 88% | 6330 µg/mL (≈ 1560 µM) | 6720 µg/mL (≈ 1660 µM)
2 | CCCCCCCCCCCCCCCC(=O)N[C@@H](CCC(=O)N[C@@H](CCC(=O)N[C@@H](CCC(=O)NCCCOCCOCCOCCCNC(=O)CCC(=O)NCCCOCCOCCOCCCNC(=O)CCC(=O)NCCCOCCOCCOCCCNC(=O)CCC(=O)NCCCC[C@H](NC(=O)CNC(=O)[C@H](CCC(=O)O)NC(=O)[C@@H](NC(=O)C(C)(C)NC(=O)[C@@H](NC(=O)[C@H](CCCCNC(C)=O)NC(=O)[C@H](C)NC(=O)[C@H](CCCNC(=N)N)NC(=O)[C@@H](NC(=O)[C@H](CCCCN)NC(=O)[C@H](CCC(=O)O)NC(=O)[C@H](CCCNC(=N)N)NC(=O)CNC(=O)[C@H](CCC(=O)O)NC(=O)[C@H](CC(C)C)NC(C)=O)C(C)C)[C@@H](C)CC)[C@@H](C)CC)C(=O)N[C@@H](CO)C(=O)N[C@H](C(=O)N[C@@H](Cc1c[nH]c2ccccc12)C(=O)N[C@@H](CO)C(=O)NC(C)(C)C(=O)N[C@@H](CCCNC(=N)N)C(=O)N[C@@H](CCCCN)C(=O)N[C@@H](CCCCNC(C)=O)C(N)=O)[C@@H](C)O)C(=O)O)C(=O)O)C(=O)O [compound 70] (Ac-LEGREKVRAK(Ac)I[Aib]IEGK([Suc-X1])STWS[Aib]RKK(Ac)-NH2) | 1.34 nM | 94% | 8240 µg/mL (≈ 1860 µM) | 9680 µg/mL (≈ 2190 µM)
3 | CCCCCCCCCCCCCCCC(=O)N[C@@H](CCC(=O)N[C@@H](CCC(=O)N[C@@H](CCC(=O)NCCCOCCOCCOCCCNC(=O)CCC(=O)NCCCOCCOCCOCCCNC(=O)CCC(=O)NCCCOCCOCCOCCCNC(=O)CCC(=O)NCCCC[C@H](NC(=O)CNC(=O)[C@H](CCC(=O)O)NC(=O)C(C)(C)NC(=O)C(C)(C)NC(=O)[C@@H](NC(=O)[C@H](CCCCNC(C)=O)NC(=O)[C@H](C)NC(=O)[C@H](CCCNC(=N)N)NC(=O)[C@@H](NC(=O)[C@H](CC(C)C)NC(=O)[C@H](CCC(=O)O)NC(=O)[C@H](CCCNC(=N)N)NC(=O)CNC(=O)[C@H](CCC(=O)O)NC(=O)[C@H](CC(C)C)NC(C)=O)C(C)C)[C@@H](C)CC)C(=O)N[C@@H](CO)C(=O)N[C@H](C(=O)N[C@@H](Cc1ccccc1)C(=O)N[C@@H](CO)C(=O)N[C@@](C)(CCCCN)C(=O)N[C@@H](CCCNC(=N)N)C(=O)N[C@@H](C)C(=O)N[C@@H](CCCCNC(C)=O)C(N)=O)[C@@H](C)O)C(=O)O)C(=O)O)C(=O)O [compound 23] (Ac-LEGRELVRAK(Ac)I[Aib][Aib]EGK([Suc-X1])STFS[αMeK]RAK(Ac)-NH2) | 11.1 nM | 92% | 550 µg/mL (≈ 127 µM) | 6770 µg/mL (≈ 1560 µM)
4 | CCCCCCCCCCCCCCCC(=O)N[C@@H](CCC(=O)N[C@@H](CCC(=O)N[C@@H](CCC(=O)NCCCOCCOCCOCCCNC(=O)COCC(=O)NCCCOCCOCCOCCCNC(=O)COCC(=O)NCCCOCCOCCOCCCNC(=O)COCC(=O)NCCCC[C@H](NC(=O)CNC(=O)[C@H](CCC(=O)O)NC(=O)C(C)(C)NC(=O)C(C)(C)NC(=O)[C@@H](NC(=O)[C@H](CCCCNC(C)=O)NC(=O)[C@H](C)NC(=O)[C@H](CCCNC(=N)N)NC(=O)[C@@H](NC(=O)[C@H](CCCCN)NC(=O)[C@H](CCC(=O)O)NC(=O)[C@H](CCCNC(=N)N)NC(=O)CNC(=O)[C@H](CCC(=O)O)NC(=O)[C@H](CC(C)C)NC(C)=O)C(C)C)[C@@H](C)CC)C(=O)N[C@@H](CO)C(=O)N[C@H](C(=O)N[C@@H](Cc1ccccc1)C(=O)N[C@@H](CO)C(=O)N[C@@](C)(CCCCN)C(=O)N[C@@H](CCCNC(=N)N)C(=O)N[C@@H](C)C(=O)N[C@@H](CCCCNC(C)=O)C(N)=O)[C@@H](C)O)C(=O)O)C(=O)O)C(=O)O [compound 22] (Ac-LEGREKVRAK(Ac)I[Aib][Aib]EGK(X7)STFS[αMeK]RAK(Ac)-NH2) | 1 nM | 92% | – | –

Results, then the molecule that gave them:

Row | EC50 (RXFP1) | Emax (RXFP1) | solubility [1, 2] | solubility [1, 3] | Structure (SMILES)
5 | 0.56 nM | 91% | 8250 µg/mL (≈ 1890 µM) | 8720 µg/mL (≈ 1990 µM) | CCCCCCCCCCCCCCCC(=O)N[C@@H](CCC(=O)N[C@@H](CCC(=O)N[C@@H](CCC(=O)NCCCOCCOCCOCCCNC(=O)CCC(=O)NCCCOCCOCCOCCCNC(=O)CCC(=O)NCCCOCCOCCOCCCNC(=O)CCC(=O)NCCCC[C@H](NC(=O)CNC(=O)[C@H](CCC(=O)O)NC(=O)C(C)(C)NC(=O)C(C)(C)NC(=O)[C@@H](NC(=O)[C@H](CCCCNC(C)=O)NC(=O)[C@H](C)NC(=O)[C@H](CCCNC(=N)N)NC(=O)[C@@H](NC(=O)[C@H](CCCCN)NC(=O)[C@H](CCC(=O)O)NC(=O)[C@H](CCCNC(=N)N)NC(=O)CNC(=O)[C@H](CCC(=O)O)NC(=O)[C@H](CC(C)C)NC(C)=O)C(C)C)[C@@H](C)CC)C(=O)N[C@@H](CO)C(=O)N[C@H](C(=O)N[C@@H](Cc1ccccc1)C(=O)NC(C)(C)C(=O)N[C@@H](CCCNC(=N)N)C(=O)N[C@@H](CCCNC(=N)N)C(=O)N[C@@H](C)C(=O)N[C@@H](CCCCNC(C)=O)C(N)=O)[C@@H](C)O)C(=O)O)C(=O)O)C(=O)O [compound 72] (Ac-LEGREKVRAK(Ac)I[Aib][Aib]EGK([Suc-X1])STF[Aib]RRAK(Ac)-NH2)
6 | 0.63 nM | 93% | – | – | CCCCCCCCCCCCCCCC(=O)N[C@@H](CCC(=O)N[C@@H](CCC(=O)N[C@@H](CCC(=O)NCCCOCCOCCOCCCNC(=O)CCC(=O)NCCCOCCOCCOCCCNC(=O)CCC(=O)NCCCOCCOCCOCCCNC(=O)CCC(=O)NCCCC[C@H](NC(=O)CNC(=O)[C@H](CCC(=O)O)NC(=O)C(C)(C)NC(=O)C(C)(C)NC(=O)[C@@H](NC(=O)[C@H](CCCCNC(C)=O)NC(=O)[C@H](C)NC(=O)[C@H](CCCNC(=N)N)NC(=O)[C@@H](NC(=O)[C@H](CCCNC(=N)N)NC(=O)[C@H](CCC(=O)O)NC(=O)[C@H](CCCNC(=N)N)NC(=O)CNC(=O)[C@H](CCC(=O)O)NC(=O)[C@H](CC(C)C)NC(C)=O)C(C)C)[C@@H](C)CC)C(=O)N[C@@H](CO)C(=O)N[C@H](C(=O)N[C@@H](Cc1c[nH]c2ccc(Cl)cc12)C(=O)N[C@@H](CO)C(=O)NC(C)(C)C(=O)N[C@@H](CCCNC(=N)N)C(=O)N[C@@H](CCCNC(=N)N)C(=O)N[C@@H](CCCCNC(C)=O)C(N)=O)[C@@H](C)O)C(=O)O)C(=O)O)C(=O)O [compound 80] (Ac-LEGRERVRAK(Ac)I[Aib][Aib]EGK([Suc-X1])ST[Trp(5-Cl)]S[Aib]RRK(Ac)-NH2)
